From patent US20150218173A1, “SUBSTITUTED INDAZOL-PYRROLOPYRIMIDINES USEFUL IN THE TREATMENT OF HYPERFOLIFERATIVE DISORDERS” (BAYER PHARMA AKTIENGESELLSCHAFT, priority 2012, published 2015)

Each compound was assayed against T1, human full-length MKNK1 (Homo sapiens, UniProt Q9BUB5, T385D) (assay: MKNK1 kinase high ATP assay (TR-FRET)). Conditions: high ATP (2 mM final), 15 min preincubation with enzyme.
T1 construct: GST (N); purchased Carna Biosciences 02-145; host or cells: insect cells (baculovirus expression system)
Type: biochemical
Method: MKNK1-inhibitory activity at high ATP of compounds of the present invention after their preincubation with MKNK1 was quantified employing the TR-FRET-based MKNK1 high ATP assay as described in the following paragraphs.
A recombinant fusion protein of Glutathione-S-Transferase (GST, N-terminally) and human full-length MKNK1 (amino acids 1-424 and T344D of accession number BAA 19885.1), expressed in insect cells using baculovirus expression system and purified via glutathione sepharose affinity chromatography, was purchased from Carna Biosciences (product no 02-145) and used as enzyme. As substrate for the kinase reaction the biotinylated peptide biotin-Ahx-IKKRKLTRRKSLKG (C-terminus in amide form) was used, which can be purchased e.g. from the company Biosyntan (Berlin-Buch, Germany).
For the assay 50 nL of a 100 fold concentrated solution of the test compound in DMSO was pipetted into a black low volume 384 well microtiter plate (Greiner Bio-One, Frickenhausen, Germany), 2 μL of a solution of MKNK1 in aqueous assay buffer [50 mM HEPES pH 7.5, 5 mM MgCl2, 1.0 mM dithiothreitol, 0.005% (v/v) Nonidet-P40 (Sigma)] was added and the mixture was incubated for 15 min at 22° C. to allow pre-binding of the test compounds to the enzyme before the start of the kinase reaction. Then the kinase reaction was started by the addition of 3 μL of a solution of adenosine-tri-phosphate (ATP, 3.3 mM=>final conc. in the 5 μL assay volume is 2 mM) and substrate (0.1 μM=>final conc. in the 5 μL assay volume is 0.06 μM) in assay buffer and the resulting mixture was incubated for a reaction time of 30 min at 22° C. The concentration of MKNK1 was adjusted depending of the activity of the enzyme lot and was chosen appropriate to have the assay in the linear range, typical concentrations were in the range of 0.003 μg/mL. The reaction was stopped by the addition of 5 μL of a solution of TR-FRET detection reagents (5 nM streptavidine-XL665 [Cisbio Bioassays, Codolet, France] and 1 nM anti-ribosomal protein S6 (pSer236)-antibody from Invitrogen [#44921G] and 1 nM LANCE EU-W1024 labeled ProteinG [Perkin-Elmer, product no. AD0071]) in an aqueous EDTA-solution (100 mM EDTA, 0.1% (w/v) bovine serum albumin in 50 mM HEPES pH 7.5).
The resulting mixture was incubated for 1 h at 22° C. to allow the formation of complex between the phosphorylated biotinylated peptide and the detection reagents. Subsequently the amount of phosphorylated substrate was evaluated by measurement of the resonance energy transfer from the Eu-chelate to the streptavidine-XL. Therefore, the fluorescence emissions at 620 nm and 665 nm after excitation at 350 nm were measured in a TR-FRET reader, e.g. a Rubystar (BMG Labtechnologies, Offenburg, Germany) or a Viewlux (Perkin-Elmer). The ratio of the emissions at 665 nm and at […] was taken as the measure for the amount of phosphorylated substrate. The data were normalised (enzyme reaction without inhibitor=0% inhibition, all other assay components but no enzyme=100% inhibition).

T1 sequence (Q9BUB5 1-424 isoform Q9BUB5-2 T344D): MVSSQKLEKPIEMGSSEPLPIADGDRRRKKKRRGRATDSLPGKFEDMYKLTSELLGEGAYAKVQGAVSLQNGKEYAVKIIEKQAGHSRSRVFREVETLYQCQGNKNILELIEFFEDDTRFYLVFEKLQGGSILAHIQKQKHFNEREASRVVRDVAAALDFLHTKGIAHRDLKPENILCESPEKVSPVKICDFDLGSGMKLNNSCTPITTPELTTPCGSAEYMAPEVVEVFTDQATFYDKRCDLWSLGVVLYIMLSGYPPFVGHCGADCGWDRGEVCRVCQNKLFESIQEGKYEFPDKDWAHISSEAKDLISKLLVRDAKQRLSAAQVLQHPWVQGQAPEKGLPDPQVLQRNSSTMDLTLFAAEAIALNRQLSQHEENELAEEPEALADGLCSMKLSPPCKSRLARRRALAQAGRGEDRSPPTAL

Row | IC50 [nM] | SMILES
1 | 58 | CCc1[nH]c2ncnc(Nc3ccc4[nH]ncc4c3)c2c1C [Example 1, 6-Ethyl-N-(1H-indazol-5-yl)-5-methyl-7H-pyrrolo[2,3-d]pyrimidin-4-amine]
2 | 10 | Brc1c[nH]c2ncnc(Nc3ccc4[nH]ncc4c3)c12 [Example 2, 5-Bromo-N-(1H-indazol-5-yl)-7H-pyrrolo[2,3-d]pyrimidin-4-amine]
3 | 25 | CCOC(=O)c1cc2c(Nc3ccc4[nH]ncc4c3)ncnc2[nH]1 [Example 4, Ethyl 4-(1H-indazol-5-ylamino)-7H-pyrrolo[2,3-d]pyrimidine-6-carboxylate]
4 | 11 | CS(=O)(=O)c1cc2c(Nc3ccc4[nH]ncc4c3)ncnc2[nH]1 [Example 5, N-(1H-Indazol-5-yl)-6-(methylsulfonyl)-7H-pyrrolo[2,3-d]pyrimidin-4-amine]
5 | 31 | Cc1cc2c(Nc3ccc4[nH]ncc4c3)ncnc2[nH]1 [Example 7, N-(1H-Indazol-5-yl)-6-methyl-7H-pyrrolo[2,3-d]pyrimidin-4-amine]
6 | 4 | C=C(C)c1cc2c(Nc3ccc4[nH]ncc4c3)ncnc2[nH]1 [Example 8, N-(1H-indazol-5-yl)-6-(prop-1-en-2-yl)-7H-pyrrolo[2,3-d]pyrimidin-4-amine]
7 | 7 | C=Cc1cc2c(Nc3ccc4[nH]ncc4c3)ncnc2[nH]1 [Example 9, 6-Ethenyl-N-(1H-indazol-5-yl)-7H-pyrrolo[2,3-d]pyrimidin-4-amine]
8 | 6 | C(=C\c1cc2c(Nc3ccc4[nH]ncc4c3)ncnc2[nH]1)/c1ccccc1 [Example 10, N-(1H-Indazol-5-yl)-6-[(E)-2-phenylethenyl]-7H-pyrrolo[2,3-d]pyrimidin-4-amine]
9 | 16 | Fc1ccc(-c2c[nH]c3ncnc(Nc4ccc5[nH]ncc5c4)c23)cc1 [Example 12, 5-(4-Fluorophenyl)-N-(1H-indazol-5-yl)-7H-pyrrolo[2,3-d]pyrimidin-4-amine]
10 | 9 | c1cncc(-c2c[nH]c3ncnc(Nc4ccc5[nH]ncc5c4)c23)c1 [Example 13, N-(1H-Indazol-5-yl)-5-(pyridin-3-yl)-7H-pyrrolo[2,3-d]pyrimidin-4-amine]
11 | 6 | c1cc(-c2c[nH]c3ncnc(Nc4ccc5[nH]ncc5c4)c23)ccn1 [Example 14, N-(1H-Indazol-5-yl)-5-(pyridin-4-yl)-7H-pyrrolo[2,3-d]pyrimidin-4-amine]
12 | 16 | c1ccc(-c2c[nH]c3ncnc(Nc4ccc5[nH]ncc5c4)c23)cc1 [Example 15, N-(1H-Indazol-5-yl)-5-phenyl-7H-pyrrolo[2,3-d]pyrimidin-4-amine]
13 | 2 | C1=C(c2cc3c(Nc4ccc5[nH]ncc5c4)ncnc3[nH]2)CCOC1 [Example 16, 6-(3,6-Dihydro-2H-pyran-4-yl)-N-(1H-indazol-5-yl)-7H-pyrrolo[2,3-d]pyrimidin-4-amine]
14 | 12 | C1=C(c2c[nH]c3ncnc(Nc4ccc5[nH]ncc5c4)c23)CCOC1 [Example 17, 5-(3,6-Dihydro-2H-pyran-4-yl)-N-(1H-indazol-5-yl)-7H-pyrrolo[2,3-d]pyrimidin-4-amine]
15 | 22 | Cc1c[nH]c2ncnc(Nc3ccc4[nH]ncc4c3)c12 [Example 18, N-(1H-Indazol-5-yl)-5-methyl-7H-pyrrolo[2,3-d]pyrimidin-4-amine]
16 | 39 | CC(C)c1cc2c(Nc3ccc4[nH]ncc4c3)ncnc2[nH]1 [Example 19, N-(1H-Indazol-5-yl)-6-(propan-2-yl)-7H-pyrrolo[2,3-d]pyrimidin-4-amine]
17 | 9 | O=C(NCCO)c1cc2c(Nc3ccc4[nH]ncc4c3)ncnc2[nH]1 [Example 20, N-(2-Hydroxyethyl)-4-(1H-indazol-5-ylamino)-7H-pyrrolo[2,3-d]pyrimidine-6-carboxamide]
18 | 8 | O=C(c1cc2c(Nc3ccc4[nH]ncc4c3)ncnc2[nH]1)N1CCCC1 [Example 21, [4-(1H-Indazol-5-ylamino)-7H-pyrrolo[2,3-d]pyrimidin-6-yl](pyrrolidin-1-yl)methanone]

Row | IC50 [nM] | SMILES
19 | 5 | CCCCNC(=O)c1cc2c(Nc3ccc4[nH]ncc4c3)ncnc2[nH]1 [Example 22, N-Butyl-4-(1H-indazol-5-ylamino)-7H-pyrrolo[2,3-d]pyrimidine-6-carboxamide]
20 | 9 | CN1CCN(C(=O)c2cc3c(Nc4ccc5[nH]ncc5c4)ncnc3[nH]2)CC1 [Example 23, [4-(1H-Indazol-5-ylamino)-7H-pyrrolo[2,3-d]pyrimidin-6-yl](4-methylpiperazin-1-yl)methanone]
21 | 29 | c1nc(Nc2ccc3[nH]ncc3c2)c2cc(C3CCOCC3)[nH]c2n1 [Example 24, N-(1H-Indazol-5-yl)-6-(tetrahydro-2H-pyran-4-yl)-7H-pyrrolo[2,3-d]pyrimidin-4-amine]
22 | 8 | O=C(NC1CCOCC1)c1cc2c(Nc3ccc4[nH]ncc4c3)ncnc2[nH]1 [Example 25, 4-(1H-Indazol-5-ylamino)-N-(tetrahydro-2H-pyran-4-yl)-7H-pyrrolo[2,3-d]pyrimidine-6-carboxamide]
23 | 80 | c1ccc(CCc2cc3c(Nc4ccc5[nH]ncc5c4)ncnc3[nH]2)cc1 [Example 26, N-(1H-Indazol-5-yl)-6-(2-phenylethyl)-7H-pyrrolo[2,3-d]pyrimidin-4-amine]
24 | 5 | CN(C)CCCNC(=O)c1cc2c(Nc3ccc4[nH]ncc4c3)ncnc2[nH]1 [Example 27, N-[3-(Dimethylamino)propyl]-4-(1H-indazol-5-ylamino)-7H-pyrrolo[2,3-d]pyrimidine-6-carboxamide]
25 | 32 | Clc1cc2c(Nc3ccc4[nH]ncc4c3)ncnc2[nH]1 [Example 28, 6-Chloro-N-(1H-indazol-5-yl)-7H-pyrrolo[2,3-d]pyrimidin-4-amine]
26 | 13 | CCOC(=O)c1[nH]c2ncnc(Nc3ccc4[nH]ncc4c3)c2c1C [Example 29, Ethyl 4-(1H-indazol-5-ylamino)-5-methyl-7H-pyrrolo[2,3-d]pyrimidine-6-carboxylate]
27 | 3 | CCOC(=O)c1[nH]c2ncnc(Nc3ccc4[nH]ncc4c3)c2c1Br [Example 30, Ethyl 5-bromo-4-(1H-indazol-5-ylamino)-7H-pyrrolo[2,3-d]pyrimidine-6-carboxylate]
28 | 5 | O=C(O)c1[nH]c2ncnc(Nc3ccc4[nH]ncc4c3)c2c1Br [Example 31, 5-Bromo-4-(1H-indazol-5-ylamino)-7H-pyrrolo[2,3-d]pyrimidine-6-carboxylic acid]
29 | 18 | Cc1c(C(=O)O)[nH]c2ncnc(Nc3ccc4[nH]ncc4c3)c12 [Example 32, 4-(1H-Indazol-5-ylamino)-5-methyl-7H-pyrrolo[2,3-d]pyrimidine-6-carboxylic acid]
30 | 13 | CCCc1[nH]c2ncnc(Nc3ccc4[nH]ncc4c3)c2c1CC [Example 34, 5-Ethyl-N-(1H-indazol-5-yl)-6-propyl-7H-pyrrolo[2,3-d]pyrimidin-4-amine]
31 | 37 | FC(F)(F)c1c[nH]c2ncnc(Nc3ccc4[nH]ncc4c3)c12 [Example 35, N-(1H-Indazol-5-yl)-5-(trifluoromethyl)-7H-pyrrolo[2,3-d]pyrimidin-4-amine]
32 | 1 | O=S(=O)(c1ccccc1)c1cc2c(Nc3ccc4[nH]ncc4c3)ncnc2[nH]1 [Example 36, N-(1H-Indazol-5-yl)-6-(phenylsulfonyl)-7H-pyrrolo[2,3-d]pyrimidin-4-amine]
33 | 2 | Cc1ccc(S(=O)(=O)c2cc3c(Nc4ccc5[nH]ncc5c4)ncnc3[nH]2)cc1 [Example 37, N-(1H-Indazol-5-yl)-6-[(4-methylphenyl)sulfonyl]-7H-pyrrolo[2,3-d]pyrimidin-4-amine]
34 | 1 | O=S(=O)(c1ccc(Cl)cc1)c1cc2c(Nc3ccc4[nH]ncc4c3)ncnc2[nH]1 [Example 38, 6-[(4-Chlorophenyl)sulfonyl]-N-(1H-indazol-5-yl)-7H-pyrrolo[2,3-d]pyrimidin-4-amine]
35 | 21 | CC(C)Cc1[nH]c2ncnc(Nc3ccc4[nH]ncc4c3)c2c1C(C)C [Example 39, N-(1H-Indazol-5-yl)-6-(2-methylpropyl)-5-(propan-2-yl)-7H-pyrrolo[2,3-d]pyrimidin-4-amine]
